Legend:
Type in all cases: cell-based
fungal spores = assay: Fungicidal activity according to GOST 30028.4-2006: resistance of treated material samples to fungal spores
S. aureus No. 1257 = assay: Bactericidal activity: bacterial culture exposed in salt solution, neutralized, inoculated on solid nutrient medium; conditions: for Bactericidal activity: growth of S. aureus test strain: CFU in 1 ml
Method: The determination is performed on E. coli No. 906 and S. aureus No. […]
(§1) The same method as described in Example 9 is used to determine the bactericidal activity of ZMA against three of four strains studied in Example 9.

[1] = test system: P. aeruginosa (clinical strain); assay: as above; conditions: for Bactericidal activity: growth of P. aeruginosa: 1.0 % wt., CFU in 1 ml
Method: (§2) The determination is performed on E. coli No. 906 and S. aureus No. 1257 test strains being usually used to study the bactericidal activity of biocides as well as on clinical strains—P. aeruginosa and methicillin-resistant strain S. aureus—at salt concentrations from 0.5 to 2% and time of exposure from 5 to 60 min.
as §1

[2] = test system: E. coli No. 906, S. aureus No. 1257, P. aeruginosa, methicillin-resistant strain S. aureus; assay: Bactericidal activity, summary over the investigated strains
Method: as §2, §1

E. coli No. 906 = assay: Bactericidal activity: bacterial culture exposed in salt solution, neutralized, inoculated on solid nutrient medium; conditions: time of exposure 30 min, concentration from 1.0 to 2.5%
Method: as §2, §1

[3] = test material paper impregnated with latex SKS 65 GP, additive content 0.5 % wt.
[4] = test material paper impregnated with petrolatum base, additive content 4.7 % wt.
[5] = test material polyvinyl chloride emulsion, additive content 0.5 % wt.

Compound | Tolerance time (fungal spores; [3]) | Tolerance time (fungal spores; [4]) | Tolerance time (fungal spores; [5]) | Bactericidal activity: growth of S. aureus test strain (S. aureus No. 1257; 1.0 % wt., exposure 15 min) | Bactericidal activity: growth of P. aeruginosa ([1]; exposure 5 min) | bactericidal effect (in words) ([2]; concentration 1.0%, time of exposure from 30 min) | Tolerance time (fungal spores; test material polyvinyl chloride emulsion, additive content 5 % wt.) | Bactericidal activity: growth of S. aureus test strain (S. aureus No. 1257; 2.5 % wt., exposure 30 min) | Bactericidal activity: growth of S. aureus test strain (S. aureus No. 1257; 5 % wt., exposure 5 min) | bactericidal activity (in words) against S. aureus No. 1257 (S. aureus No. 1257; only at concentration of 2.5% and time of exposure of 60 min) | bactericidal activity (in words) against E. coli No. 906 (E. coli No. 906) | Bactericidal activity: growth of P. aeruginosa ([1]; exposure 30 min) | bactericidal activity (in words) against P. aeruginosa ([1]; only at concentration from 2.5%) | bactericidal activity compared with the proposed salts ([2]; comparison of Table 3 with Table 2)
Zinc methacrylate-sulfosalicylate | 16 days | 20 days | 16 days | >300 CFU | 1 CFU | stable bactericidal effect against three of four investigated strains | – | – | – | – | – | – | – | –
C=C(C)C(=O)[O-].CC(=O)[O-].[Zn+2] [ZMA, zinc methacrylate-acetate] | 12 days | 16 days | – | – | – | – | 22 days | >300 CFU | >300 CFU | sub-bactericidal activity | stable bactericidal activity | >300 CFU | not completely stable bactericidal activity | substantially lower than that of the proposed salts
C=CC(=O)[O-].O=C([O-])c1ccccc1.[Zn+2] [Zinc acrylate-benzoate] | – | – | 11 days | – | – | – | – | – | – | – | – | – | – | –

— patent US10442758B2, “Zinc or Copper (II) salt and use thereof as a biocide” (LABORATORIYA BIO ZET, LLC, priority 2013, dated 2019)
